Here are results for 23 molecules from patent publication US20080260661A1, “Aminobutadiene-Based Uv Screens” (Fuji Photo Film B.V., priority 2004, published 2008).

One data set is described as follows: Appearance of formulation after application to the transparent substrate. The format is physicochemical.
Conditions: not given
Regarding `CCCCCCCCCCOC(=O)/C(=C/C=C/N(C)C)C(C)=O` [Structure 1.12r], the “Appearance (colour) of formulation” value is on record as “had a colourless appearance after application to the transparent substrate, except for structure 1.12r”.

The nature of another data set: Absorption maximum of the structures. The format is physicochemical. As to conditions: Table 1; measured in methanol, or if not soluble in methanol, in ethanol. The method, then: Absorption maxima of the structures in Tables 1 to 3 are measured in methanol, or if not soluble in methanol, in ethanol.
As for `CCCCCCN(/C=C/C=C(/C(=O)OCC)S(=O)(=O)c1ccccc1)CCCCCC` [Structure 1.1i], the Absorption maximum came out at 373 nm.
Same read-out and setting: under `CCCCN(/C=C/C=C(\C(=O)OC)S(=O)(=O)c1ccc(C(C)(C)C)cc1)CCCC` [Structure 1.2i] stands 373 nm.
The molecule `CCCCC(CC)COC(=O)C(=C/C=C/N(C)C)C(=O)OCC(CC)CCCC` (stereo not drawn) [Structure 1.3i] had an Absorption maximum of 374 nm.
In turn, `CCCCCCN(/C=C/C=C(\C(=O)OCCOc1ccc(C(C)(C)CC)cc1C(C)(C)CC)S(=O)(=O)c1ccc(C)cc1)CCCCCC` [Structure 1.4i] displayed an Absorption maximum of 374 nm.
The same measure, in the same setting: under `CCCCCCN(/C=C/C=C(C#N)C#N)CCCCCC` [Structure 1.5i] stands 378 nm; under `CCCCN(/C=C/C=C1C(=O)CC(C)(C)CC1=O)CCCC` [Structure 1.6r], 389 nm; under `CCCCN(/C=C/C=C(\C(C)=O)S(=O)(=O)c1ccc(C)cc1)CCCC` [Structure 1.7r], 385 nm.
`CCCCCCN(/C=C/C=C(\C(C)=O)S(=O)(=O)c1ccccc1)CCCCCC` [Structure 1.8r] showed an Absorption maximum of 385 nm.
Same read-out and setting: in the case of `CCCCCCN(/C=C/C=C1C(=O)N(C)N(C)C1=O)CCCCCC` [Structure 1.9r] it was 387 nm.
`CCCCCCN(/C=C/C=C1C(=O)N(C)C(=O)N(C)C1=O)CCCCCC` [Structure 1.10r] gave an Absorption maximum of 388 nm.
The molecule `CCCCCCCCCCOC(=O)/C(=C/C=C/N(C)C)C(C)=O` [Structure 1.12r] showed an Absorption maximum of 394 nm.
`CCCCCCN(/C=C/C=C(C(C)=O)C(C)=O)CCCCCC` [Structure 1.13r] showed an Absorption maximum of 395 nm.

The same data set, now with this note: Table 2; measured in methanol, or if not soluble in methanol, in ethanol.
`CCCCCCCCCCOC(=O)/C(=C\C=C\N1CCCCC1)S(=O)(=O)c1ccccc1` [Structure 2.1i] showed an Absorption maximum of 375 nm.
Still for that read-out and setting: under `CC(=O)/C(=C\C=C\N1CCOCC1)S(=O)(=O)c1ccccc1` [Structure 2.2r] stands 383 nm.
Molecule `CCCCC(CC)COC(=O)C(=CC=CN1CCCCC1)C(C)=O` (stereo not drawn) [Structure 2.3r] gave an Absorption maximum of 395 nm.

Staying with this data set, now noted: Table 3; measured in methanol, or if not soluble in methanol, in ethanol.
Molecule `Cc1ccc(S(=O)(=O)/C(C#N)=C\C=C2\OCC(C)(C)N2C)cc1` [Structure 3.1i] had an Absorption maximum of 361 nm.
The molecule `CCCCCCOC(=O)/C(=C/C=C1/OCC(C)(C)N1C)S(=O)(=O)c1ccccc1` [Structure 3.2i] gave an Absorption maximum of 362 nm.
`CCCCCCCCCCCCN1/C(=C\C=C(C#N)C#N)OCC1(C)C` [Structure 3.3i] came in with an Absorption maximum of 372 nm.
On to `CCCCCCCCCCN1/C(=C\C=C(\C(C)=O)S(=O)(=O)c2ccccc2)OCC1(C)C` [Structure 3.4i], for which the Absorption maximum came out at 373 nm.
The same measure, in the same setting: under `CCCCCCCCCCCCOC(=O)/C(C#N)=C/C=C1/OCC(C)(C)N1C` [Structure 3.5i] stands 374 nm; under `CCCCCCCCCCN1CCC/C1=C/C=C(/C(=O)OCC)S(=O)(=O)c1ccc(OC)cc1` [Structure 3.6i], 375 nm; under `CCCCCCCCCCN1CCC/C1=C/C=C(/C(C)=O)S(=O)(=O)c1ccccc1` [Structure 3.7r], 392 nm.
Regarding `CCCCCCCCCCN1/C(=C\C=C(\C(=O)OCCCCCC)S(=O)(=O)c2ccc(C)cc2)SCC1C` (stereo not drawn) [Structure 3.8r], the Absorption maximum turned out to be 392 nm.
